Measurements taken from patent US12286451B2, “Borate ester complexes of α-hydroxy carboxylic acids and their conjugate base buffers” (Medtech Products Inc., priority 2020, dated 2025).

Assays:
[1] = Molar titration of boric acid/α-hydroxy acid reaction products with 0.1N sodium hydroxide; type: physicochemical; settings: for pKa: 5.0 ml solution, pH at half of the end point; for Capacity (buffer capacity): titrant required to raise the pH one unit from the pKa value
Description: (§1) Reaction products of boric acid and α-hydroxy carboxylic acids were prepared by diluting pre-made stock solution of 0.4M boric acid and 0.4M, 0.6M, and 0.8M α-hydroxy carboxylic acid. [table] Each reaction mixture was allowed to mix for a minimum of two hours before subsequent titration with 0.1N certified sodium hydroxide solution. Two sets of titrations were performed. The first set of titrations, molar titration, 5.0 ml of each solution is titrated to accurately determine end point and the pKa and pH at half of the end point. The second set of titrations, equivalence titration, solution volumes were adjusted to 0.5 milliequivalent and the buffer capacity determined. For simplicity, buffer capacity is reported as the milliequivalents of titrant required to raise the pH one unit from the pKa value. An exception was made for the 1:3 test ratio in which free α-hydroxy acid and the boric acid ester complex could not be distinguished between.

[2] = Equivalence titration (0.5 milliequivalent) of reaction products with 0.1N sodium hydroxide; type: physicochemical; settings: equivalent titration; for pKa: volume adjusted to 0.5 milliequivalent; for Capacity (buffer capacity): titrant required to raise the pH one unit from the pKa value
Description: as §1

| pKa [1] | Capacity (buffer capacity) [1] | pKa [2] | Capacity (buffer capacity) [2] | Structure (SMILES) |
| --- | --- | --- | --- | --- |
| 4.3 | 39 milliequivalents | 4.3 | 39 milliequivalents | O=C(O)CC(O)(CC(=O)O)C(=O)O [Citric Acid 0, Citric Acid] |
| 3.9 | 13 milliequivalents | 3.9 | 13 milliequivalents | O=C(O)CO [Glycolic Acid 0, Glycolic Acid] |
| 4 | 11 milliequivalents | 4 | 11 milliequivalents | CC(O)C(=O)O (stereo not drawn) [Lactic Acid 0, Lactic Acid] |
